Patent publication US6737383B1, “Herbicidal oxadiazolidines” (priority 1999, dated 2004)

Key:
blackgrass = assay: Test B pre/postemergence blackgrass; format: in vivo, Alopecurus myosuroides
Summary of the method: (§1)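 Herbicidal effect was estimated by eye on a ten-point control scale after plants spent twelve to sixteen days in a greenhouse following soil or foliar treatment. Foliar sprays targeted plants at one to four leaves; all doses were formulated in a non-phytotoxic solvent with surfactant.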

duck salad = assay: Test B flood test duck salad; format: in vivo, Heteranthera limosa; settings: Pre-emergence
Summary of the method: (§2)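 Each value is a visual injury score relative to controls, with 10 meaning complete control and 0 no effect. Evaluation took place twelve to sixteen days after the 2-leaf-stage plants were treated and kept in the greenhouse.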

giant foxtail = assay: Test B pre/postemergence giant foxtail; format: in vivo, Setaria faberii
Summary of the method: as §1

bamyardgrass = assay: Test B flood test barnyardgrass; format: in vivo, Echinochloa crus-galli; settings: Pre-emergence
Summary of the method: as §2

cocklebur = assay: Test B pre/postemergence cocklebur; format: in vivo, Xanthium strumarium
Summary of the method: as §1

sugar beet = assay: Test B pre/postemergence sugar beet; format: in vivo, Beta vulgaris
Summary of the method: as §1

morningglory = assay: Test B pre/postemergence morningglory; format: in vivo, Ipomoea hederacea
Summary of the method: as §1

crabgrass = assay: Test B pre/postemergence crabgrass; format: in vivo, Digitaria sanguinalis
Summary of the method: as §1

velvetleaf = assay: Test B pre/postemergence velvetleaf; format: in vivo, Abutilon theophrasti
Summary of the method: as §1

pigweed = assay: Test B pre/postemergence pigweed; format: in vivo, Amaranthus retroflexus
Summary of the method: as §1

wild oat = assay: Test B pre/postemergence wild oat; format: in vivo, Avena fatua
Summary of the method: as §1

bedstraw = assay: Test B pre/postemergence bedstraw; format: in vivo, Galium aparine
Summary of the method: as §1

purple nutsedge = assay: Test B pre/postemergence purple nutsedge; format: in vivo, Cyperus rotundus
Summary of the method: as §1

rice = assay: Test B flood test rice; format: in vivo, Oryza sativa; settings: Pre-emergence
Summary of the method: as §2

wheat = assay: Test B pre/postemergence wheat; format: in vivo, Triticum aestivum
Summary of the method: as §1

surinam grass = assay: Test B pre/postemergence surinam grass; format: in vivo, Brachiaria decumbens
Summary of the method: as §1

[1] = Postemergence, Rate 1000 g/ha, scale 0 to 10 (0 no effect, 10 complete control)
[2] = Preemergence, Rate 250 g/ha, scale of 0 to 10 where 0 is no effect and 10 is complete control
[3] = Preemergence, Rate 500 g/ha, scale of 0 to 10 where 0 is no effect and 10 is complete control
[4] = Rate 125 g/ha, Postemergence, scale 0 to 10
[5] = Rate 125 g/ha, Preemergence, scale of 0 to 10 where 0 is no effect and 10 is complete control
[6] = Rate 500 g/ha, Postemergence, scale 0 to 10, 0 no effect, 10 complete control
[7] = Rate 1000 g/ha, Preemergence, scale 0 to 10 (0 no effect, 10 complete control)
[8] = Rate 1000 g/ha, scale 0 to 10 (0 no effect, 10 complete control)
[9] = Rate 125 g/ha, flood test species, scale 0 to 10 where 0 is no effect and 10 is complete control
[10] = Rate 250 g/ha, flood-test species, scale 0 to 10, 0 is no effect, 10 is complete control
[11] = Rate 500 g/ha, flood test species, scale 0 to 10 (0 no effect, 10 complete control)

CCOC(=O)C(C)N(C(=O)n1oc(=O)n(-c2ccccc2C)c1=O)c1ccc(F)cc1 (stereo not shown) [Compound 247]
Blackgrass plant response rating (blackgrass; [1]): 0
Blackgrass plant response rating (blackgrass; [2]): 0
Plant response rating, Blackgrass (blackgrass; [3]): 0
Blackgrass plant response rating (blackgrass; [4]): 0
Blackgrass plant response rating (blackgrass; [5]): 0
Plant response rating (0 to 10; 0 is no effect, 10 is complete control), Blackgrass (blackgrass; Rate 250 g/ha, Postemergence): 0
Blackgrass plant response rating (blackgrass; [6]): 0
Plant response rating, Blackgrass (blackgrass; [7]): 0
Ducksalad plant response rating (duck salad; [8]): 0
Ducksalad plant response rating (duck salad; [9]): 0
Ducksalad plant response rating (duck salad; [10]): 0
Ducksalad plant response rating (duck salad; [11]): 0
Giant foxtail plant response rating (giant foxtail; [1]): 0
Giant foxtail plant response rating (giant foxtail; [2]): 2
Plant response rating, Giant foxtail (giant foxtail; [3]): 3
Giant foxtail plant response rating (giant foxtail; [5]): 0
Plant response rating (0 to 10; 0 is no effect, 10 is complete control), Giant foxtail (giant foxtail; Rate 250 g/ha, Postemergence): 0
Giant foxtail plant response rating (giant foxtail; [6]): 0
Plant response rating, Giant foxtail (giant foxtail; [7]): 7
Barnyardgrass plant response rating (bamyardgrass; [8]): 0
Barnyardgrass plant response rating (bamyardgrass; [9]): 0
Barnyardgrass plant response rating (bamyardgrass; [10]): 0
Barnyardgrass plant response rating (bamyardgrass; [11]): 0
Cocklebur plant response rating (cocklebur; [1]): 0
Cocklebur plant response rating (cocklebur; [2]): 0
Plant response rating, Cocklebur (cocklebur; [3]): 0
Cocklebur plant response rating (cocklebur; [4]): 0
Cocklebur plant response rating (cocklebur; [5]): 0
Plant response rating (0 to 10; 0 is no effect, 10 is complete control), Cocklebur (cocklebur; Rate 250 g/ha, Postemergence): 0
Cocklebur plant response rating (cocklebur; [6]): 0
Plant response rating, Cocklebur (cocklebur; [7]): 0
Sugarbeets plant response rating (sugar beet; [1]): 0
Sugarbeets plant response rating (sugar beet; [2]): 0
Plant response rating, Sugarbeets (sugar beet; [3]): 0
Sugarbeets plant response rating (sugar beet; [5]): 0
Sugarbeets plant response rating (sugar beet; [6]): 0
Plant response rating, Sugarbeets (sugar beet; [7]): 0
Morningglory plant response rating (morningglory; [1]): 4
Morningglory plant response rating (morningglory; [2]): 0
Plant response rating, Morningglory (morningglory; [3]): 0
Morningglory plant response rating (morningglory; [5]): 0
Plant response rating (0 to 10; 0 is no effect, 10 is complete control), Morningglory (morningglory; Rate 250 g/ha, Postemergence): 2
Morningglory plant response rating (morningglory; [6]): 2
Plant response rating, Morningglory (morningglory; [7]): 0
Crabgrass plant response rating (crabgrass; [1]): 0
Crabgrass plant response rating (crabgrass; [2]): 2
Plant response rating, Crabgrass (crabgrass; [3]): 2
Crabgrass plant response rating (crabgrass; [5]): 0
Plant response rating (0 to 10; 0 is no effect, 10 is complete control), Crabgrass (crabgrass; Rate 250 g/ha, Postemergence): 0
Crabgrass plant response rating (crabgrass; [6]): 0
Plant response rating, Crabgrass (crabgrass; [7]): 3
Velvetleaf plant response rating (velvetleaf; [1]): 0
Velvetleaf plant response rating (velvetleaf; [2]): 0
Plant response rating, Velvetleaf (velvetleaf; [3]): 0
Velvetleaf plant response rating (velvetleaf; [5]): 0
Velvetleaf plant response rating (velvetleaf; [6]): 0
Plant response rating, Velvetleaf (velvetleaf; [7]): 0
Redroot pigweed plant response rating (pigweed; [1]): 0
Redroot pigweed plant response rating (pigweed; [2]): 0
Plant response rating, Redroot pigweed (pigweed; [3]): 0
Redroot pigweed plant response rating (pigweed; [5]): 0
Plant response rating (0 to 10; 0 is no effect, 10 is complete control), Redroot pigweed (pigweed; Rate 250 g/ha, Postemergence): 0
Redroot pigweed plant response rating (pigweed; [6]): 0
Plant response rating, Redroot pigweed (pigweed; [7]): 0
Wild oats plant response rating (wild oat; [1]): 0
Wild oats plant response rating (wild oat; [2]): 0
Plant response rating, Wild oats (wild oat; [3]): 0
Wild oats plant response rating (wild oat; [5]): 0
Wild oats plant response rating (wild oat; [6]): 0
Plant response rating, Wild oats (wild oat; [7]): 0
Bedstraw plant response rating (bedstraw; [1]): 0
Bedstraw plant response rating (bedstraw; [2]): 0
Plant response rating, Bedstraw (bedstraw; [3]): 0
Bedstraw plant response rating (bedstraw; [4]): 0
Bedstraw plant response rating (bedstraw; [5]): 0
Plant response rating (0 to 10; 0 is no effect, 10 is complete control), Bedstraw (bedstraw; Rate 250 g/ha, Postemergence): 0
Bedstraw plant response rating (bedstraw; [6]): 0
Plant response rating, Bedstraw (bedstraw; [7]): 0
Nutsedge plant response rating (purple nutsedge; [1]): 0
Nutsedge plant response rating (purple nutsedge; [2]): 0
Plant response rating (0 to 10; 0 is no effect, 10 is complete control), Nutsedge (purple nutsedge; Rate 250 g/ha, Postemergence): 0
Nutsedge plant response rating (purple nutsedge; [6]): 0
Rice plant response rating (rice; [8]): 0
Rice plant response rating (rice; [9]): 0
Rice plant response rating (rice; [10]): 0
Rice plant response rating (rice; [11]): 0
Wheat plant response rating (wheat; [1]): 0
Wheat plant response rating (wheat; [2]): 0
Plant response rating, Wheat (wheat; [3]): 0
Wheat plant response rating (wheat; [5]): 0
Wheat plant response rating (wheat; [6]): 0
Plant response rating, Wheat (wheat; [7]): 0
B. signalgrass plant response rating (surinam grass; [1]): 0
B. signalgrass plant response rating (surinam grass; [2]): 0
Plant response rating, B. signalgrass (surinam grass; [3]): 0
B. signalgrass plant response rating (surinam grass; Rate 125 g/ha, Postemergence, scale 0 (no effect) to 10 (complete control)): 0
B. signalgrass plant response rating (surinam grass; [5]): 0
Plant response rating (0 to 10; 0 is no effect, 10 is complete control), B. signalgrass (surinam grass; Rate 250 g/ha, Postemergence): 0
B. signalgrass plant response rating (surinam grass; [6]): 0
Plant response rating, B. signalgrass (surinam grass; [7]): 0
